Key:
ΔF508-CFTR [1] = target: T1, ΔF508-CFTR (Homo sapiens, UniProt P13569, DEL508-508); assay: CFTR cell surface levels using HRP-tagged ΔF508-CFTR expressing CFBE cells, intrinsic corrector capacity; format: cell-based; parameters: % Activation: concentration or dose not given beside the values
T1 construct: host or cells: CFBE41o-, doxycycline-inducible
Procedure, shortened: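 Surface ΔF508-CFTR was measured as HRP chemiluminescence from an extracellular-loop-4 tag, expressed as percent activity between DMSO and a […] corrector control.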

ΔF508-CFTR [2] = target: T1, ΔF508-CFTR; assay: CFTR cell surface levels using HRP-tagged ΔF508-CFTR expressing CFBE cells, in the presence of a co-corrector; format: cell-based
Procedure, shortened: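 Chemiluminescent read-out of surface HRP (15 min, dark) after PBS washes. Activity is normalized as 100×(sample−DMSO)/(3 μM co-corrector alone−DMSO).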

[3] = HRP-tagged ΔF508-CFTR expressing CFBE41o- cells, compound alone (intrinsic corrector capacity), 20 hours at 33° C.
[4] = HRP-tagged ΔF508-CFTR expressing CFBE41o- cells, compound alone (intrinsic corrector capacity), 20 hours at 33° C., read-out: EC50
[5] = HRP-tagged ΔF508-CFTR CFBE cells, in the presence of 3 μM co-corrector
[6] = HRP-tagged ΔF508-CFTR CFBE cells, in the presence of 3 μM co-corrector, read-out: EC50

T1 sequence (P13569 with tags, fused parts or gaps DEL508-508): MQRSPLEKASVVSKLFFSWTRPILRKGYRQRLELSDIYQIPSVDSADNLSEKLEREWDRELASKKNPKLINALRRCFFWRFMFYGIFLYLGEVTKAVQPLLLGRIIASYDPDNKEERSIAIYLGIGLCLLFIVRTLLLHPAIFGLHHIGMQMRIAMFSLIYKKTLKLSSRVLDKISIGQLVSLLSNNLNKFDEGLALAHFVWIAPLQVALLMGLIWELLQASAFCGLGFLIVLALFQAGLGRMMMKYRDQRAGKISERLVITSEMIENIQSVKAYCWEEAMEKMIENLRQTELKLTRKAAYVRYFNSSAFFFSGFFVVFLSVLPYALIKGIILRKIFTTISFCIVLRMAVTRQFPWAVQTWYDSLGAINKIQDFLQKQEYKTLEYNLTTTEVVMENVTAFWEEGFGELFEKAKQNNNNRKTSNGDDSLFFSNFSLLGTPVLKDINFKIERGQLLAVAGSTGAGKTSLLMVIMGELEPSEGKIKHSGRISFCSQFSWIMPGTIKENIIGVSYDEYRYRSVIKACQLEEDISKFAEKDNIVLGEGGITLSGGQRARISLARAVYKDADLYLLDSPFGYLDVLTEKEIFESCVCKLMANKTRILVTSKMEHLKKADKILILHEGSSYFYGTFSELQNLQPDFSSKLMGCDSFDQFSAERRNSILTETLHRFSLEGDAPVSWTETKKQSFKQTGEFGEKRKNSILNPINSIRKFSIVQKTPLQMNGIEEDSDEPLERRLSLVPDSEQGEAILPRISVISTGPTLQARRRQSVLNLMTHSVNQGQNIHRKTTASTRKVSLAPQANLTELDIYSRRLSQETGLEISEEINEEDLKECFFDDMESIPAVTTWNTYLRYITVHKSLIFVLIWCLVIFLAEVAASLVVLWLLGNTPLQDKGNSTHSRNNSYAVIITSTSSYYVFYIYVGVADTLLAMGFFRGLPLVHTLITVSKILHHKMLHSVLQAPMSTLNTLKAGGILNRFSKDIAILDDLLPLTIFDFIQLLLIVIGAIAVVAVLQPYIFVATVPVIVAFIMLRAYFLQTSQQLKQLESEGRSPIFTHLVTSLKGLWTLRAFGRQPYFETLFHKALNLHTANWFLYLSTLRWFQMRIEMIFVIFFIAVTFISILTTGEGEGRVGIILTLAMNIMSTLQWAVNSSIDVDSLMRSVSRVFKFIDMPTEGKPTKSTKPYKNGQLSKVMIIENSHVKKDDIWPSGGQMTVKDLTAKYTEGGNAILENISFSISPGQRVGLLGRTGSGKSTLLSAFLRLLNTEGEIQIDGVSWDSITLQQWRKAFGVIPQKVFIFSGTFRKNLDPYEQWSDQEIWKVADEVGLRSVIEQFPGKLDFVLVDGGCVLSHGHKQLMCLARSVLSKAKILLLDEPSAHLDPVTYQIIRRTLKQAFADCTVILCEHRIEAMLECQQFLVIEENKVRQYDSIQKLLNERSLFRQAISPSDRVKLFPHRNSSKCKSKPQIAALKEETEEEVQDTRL

SMILES	% Activation (ΔF508-CFTR [1]; [3]) [%]	EC50 (ΔF508-CFTR [1]; [4]) [nM]	% Activation (ΔF508-CFTR [2]; [5]) [%]	EC50 (ΔF508-CFTR [2]; [6]) [nM]	EC50 (ΔF508-CFTR [1]) [nM]	EC50 (ΔF508-CFTR [2]) [nM]
Cc1cccc(-n2nc(C(C)C)c3c(N4CCC(CF)CC4)cc(C(=O)NS(C)(=O)=O)nc32)c1 [Compound 164, 4-[4-(fluoromethyl)piperidin-1-yl]-N-(methanesulfonyl)-1-(3-methylphenyl)-3-(propan-2-yl)-1H-pyrazolo[3,4-b]pyridine-6-carboxamide]	295.25	594	492.45	388	–	–
CC(C)Oc1nn(C2CCCCC2)c2nc(C(=O)NS(C)(=O)=O)cc(-c3ccc(C4(C#N)CCN(C)CC4)cc3)c12 [Compound 639, 4-[4-(4-cyano-1-methylpiperidin-4-yl)phenyl]-1-cyclohexyl-N-(methanesulfonyl)-3-[(propan-2-yl)oxy]-1H-pyrazolo[3,4-b]pyridine-6-carboxamide]	–	–	–	–	132	74.5
CC(C)c1nn(C2CCCCC2)c2nc(C(=O)NS(C)(=O)=O)cc(-c3ccc(N(C)C4CCOC4)nc3)c12 (stereo not shown) [Compound 122, 1-cyclohexyl-N-(methanesulfonyl)-4-{6-[methyl(oxolan-3-yl)amino]pyridin-3-yl}-3-(propan-2-yl)-1H-pyrazolo[3,4-b]pyridine-6-carboxamide]	184.53	470	405.9	281	–	–
CCS(=O)(=O)NC(=O)c1cc(-c2ccc(N(C)C)nc2)c2c(C(C)C)nn(-c3cccc(N4CCOCC4)c3)c2n1 [Compound 32, 4-[6-(dimethylamino)pyridin-3-yl]-N-(ethanesulfonyl)-1-[3-(morpholin-4-yl)phenyl]-3-(propan-2-yl)-1H-pyrazolo[3,4-b]pyridine-6-carboxamide]	277.65	372	526	234	–	–
COCC1CCN(c2cc(C(=O)NS(=O)(=O)C3CC3)nc3c2c(C2CCC2)nn3-c2ccccc2)CC1 [Compound 401, 3-cyclobutyl-N-(cyclopropanesulfonyl)-4-[4-(methoxymethyl)piperidin-1-yl]-1-phenyl-1H-pyrazolo[3,4-b]pyridine-6-carboxamide]	400.8	104	595.1	62	–	–
Cc1nn(-c2ccccc2)c2nc(C(=O)NS(C)(=O)=O)cc(-c3ccc(N4CC(N(C)C)C4)cc3)c12 [Compound 41, 4-{4-[3-(dimethylamino)azetidin-1-yl]phenyl}-N-(methanesulfonyl)-3-methyl-1-phenyl-1H-pyrazolo[3,4-b]pyridine-6-carboxamide]	52.497	817	253.3	1140	–	–
CC(C)Oc1nn(C2CCCCC2)c2nc(C(=O)NS(C)(=O)=O)cc(-c3ccc(CN4CCC(N(C)C)CC4)cc3)c12 [Compound 643, 1-cyclohexyl-4-(4-{[4-(dimethylamino)piperidin-1-yl]methyl}phenyl)-N-(methanesulfonyl)-3-[(propan-2-yl)oxy]-1H-pyrazolo[3,4-b]pyridine-6-carboxamide]	181.65	506	445.25	497	–	–
CCS(=O)(=O)NC(=O)c1cc(-c2ccc(N3CCOCC3)nc2)c2c(C(C)C)nn(-c3cccc(N(C)C)c3)c2n1 [Compound 54, 1-[3-(dimethylamino)phenyl]-N-(ethanesulfonyl)-4-[6-(morpholin-4-yl)pyridin-3-yl]-3-(propan-2-yl)-1H-pyrazolo[3,4-b]pyridine-6-carboxamide]	386.92	780	593.12	464	–	–
CS(=O)(=O)NC(=O)c1cc(OCC2CCCCC2)c2c(C3CCC3)nn(-c3ccccc3)c2n1 [Compound 181, 3-cyclobutyl-4-(cyclohexylmethoxy)-N-(methanesulfonyl)-1-phenyl-1H-pyrazolo[3,4-b]pyridine-6-carboxamide]	137.73	398	357.93	435	–	–
COC1CCCN(C2CCN(c3cc(C(=O)NS(C)(=O)=O)nc4c3c(C3CCC3)nn4-c3ccc(F)cc3)CC2)C1 (stereo not shown) [Compound 587, 3-cyclobutyl-1-(4-fluorophenyl)-N-(methanesulfonyl)-4-(3-methoxy[1,4'-bipiperidin]-1'-yl)-1H-pyrazolo[3,4-b]pyridine-6-carboxamide]	277.1	235	504.6	398	–	–
CC(C)c1nn(-c2cccc(C(F)(F)F)c2)c2nc(C(=O)NS(C)(=O)=O)cc(-c3ccc(N4CCC(C#N)CC4)nc3)c12 [Compound 124, 4-[6-(4-cyanopiperidin-1-yl)pyridin-3-yl]-N-(methanesulfonyl)-3-(propan-2-yl)-1-[3-(trifluoromethyl)phenyl]-1H-pyrazolo[3,4-b]pyridine-6-carboxamide]	288.1	545	447.23	312	–	–
CC(C)c1nn(-c2ccc(F)cc2)c2nc(C(=O)NS(C)(=O)=O)cc(N3CCN(C4CCC4)CC3)c12 [Compound 280, 4-(4-cyclobutylpiperazin-1-yl)-1-(4-fluorophenyl)-N-(methanesulfonyl)-3-(propan-2-yl)-1H-pyrazolo[3,4-b]pyridine-6-carboxamide]	121.9	1010	323.37	1010	–	–
CCN1CCN(Cc2ccc(-c3cc(C(=O)NS(C)(=O)=O)nc4c3c(OC(C)C)nn4C3CCCCC3)cc2)CC1 [Compound 642, 1-cyclohexyl-4-{4-[(4-ethylpiperazin-1-yl)methyl]phenyl}-N-(methanesulfonyl)-3-[(propan-2-yl)oxy]-1H-pyrazolo[3,4-b]pyridine-6-carboxamide]	222	235	430.9	97.3	–	–
CC(C)c1nn(-c2cccc(OC(F)(F)F)c2)c2nc(C(=O)NS(C)(=O)=O)cc(-c3ccc(N4CCOCC4)cc3)c12 [Compound 126, N-(methanesulfonyl)-4-[4-(morpholin-4-yl)phenyl]-3-(propan-2-yl)-1-[3-(trifluoromethoxy)phenyl]-1H-pyrazolo[3,4-b]pyridine-6-carboxamide]	309.17	597	487.53	322	–	–
CC(C)Oc1nn(C2CCCCC2)c2nc(C(=O)NS(=O)(=O)N(C)C)cc(-c3ccc(N4CCN(C(C)C)CC4)cc3)c12 [Compound 534, 1-cyclohexyl-N-(dimethylsulfamoyl)-3-[(propan-2-yl)oxy]-4-{4-[4-(propan-2-yl)piperazin-1-yl]phenyl}-1H-pyrazolo[3,4-b]pyridine-6-carboxamide]	105	241	289.35	344	–	–
CC(C)c1nn(-c2ccc(F)cc2)c2nc(C(=O)NS(C)(=O)=O)cc(OCC3COCCN3C(C)C)c12 (stereo not shown) [Compound 310, 1-(4-fluorophenyl)-N-(methanesulfonyl)-3-(propan-2-yl)-4-{[4-(propan-2-yl)morpholin-3-yl]methoxy}-1H-pyrazolo[3,4-b]pyridine-6-carboxamide]	66.84	692	251.5	924	–	–
COCC1CCN(c2cc(C(=O)NS(=O)(=O)N3CCC(N4CCC[C@H]4COC)CC3)nc3c2c(C2CCC2)nn3-c2ccccc2)CC1 [Compound 390, 3-cyclobutyl-4-[4-(methoxymethyl)piperidin-1-yl]-N-{4-[(2S)-2-(methoxymethyl)pyrrolidin-1-yl]piperidine-1-sulfonyl}-1-phenyl-1H-pyrazolo[3,4-b]pyridine-6-carboxamide]	188.2	177	350.17	140	–	–
CN(C)S(=O)(=O)NC(=O)c1cc(N2CCC(N3CCCCC3)CC2)c2c(C3CCC3)nn(-c3ccccc3)c2n1 [Compound 426, 4-([1,4′-bipiperidin]-1′-yl)-3-cyclobutyl-N-(dimethylsulfamoyl)-1-phenyl-1H-pyrazolo[3,4-b]pyridine-6-carboxamide]	143.7	–	385.3	–	302	82
COCC1CCN(c2cc(C(=O)NS(=O)(=O)CC(N)=O)nc3c2c(C2CCC2)nn3-c2ccccc2)CC1 [Compound 384, N-(2-amino-2-oxoethanesulfonyl)-3-cyclobutyl-4-[4-(methoxymethyl)piperidin-1-yl]-1-phenyl-1H-pyrazolo[3,4-b]pyridine-6-carboxamide]	228	2860	391.35	1440	–	–
CC(C)c1nn(-c2ccc(F)cc2)c2nc(C(=O)NS(C)(=O)=O)cc(C3CCN(C(=O)OC(C)(C)C)CC3)c12 [Compound 378, tert-butyl 4-[1-(4-fluorophenyl)-6-[(methanesulfonyl)carbamoyl]-3-(propan-2-yl)-1H-pyrazolo[3,4-b]pyridin-4-yl]piperidine-1-carboxylate]	160	1330	318.6	658	–	–
CN1CCN(C(=O)[C@@H]2CCCN2S(=O)(=O)NC(=O)c2cc(OCC3CCOCC3)c3c(C4CCC4)nn(-c4ccccc4)c3n2)CC1 [Compound 352, 3-cyclobutyl-N-[(2S)-2-(4-methylpiperazine-1-carbonyl)pyrrolidine-1-sulfonyl]-4-[(oxan-4-yl)methoxy]-1-phenyl-1H-pyrazolo[3,4-b]pyridine-6-carboxamide]	27.44	5000	158.4	2780	–	–

Source: US10259810B2, “N-sulfonylated pyrazolo[3,4-b]pyridin-6-carboxamides and method of use” (AbbVie S.à.r.l., priority 2015, dated 2019)
